Laboratory results from PMC9186362, “Design and biological evaluation of substituted 5,7-dihydro-6H-indolo[2,3-c]quinolin-6-one as novel selective Haspin inhibitors” (Journal of Enzyme Inhibition and Medicinal Chemistry, 2022).

Key:
Assay in all cases: LanthaScreen Binding - Eu-anti-GST
Details in all cases: read-out: Percentage of inhibition
AAK1 = biological target: T1, AAK1 (Homo sapiens, UniProt Q2M2I8)
T1 construct: purchased Life Technologies
Description: (§1) We further evaluated the selectivity profile of compound 55 on a larger panel of kinases (SelectScreen Whole Panel, Life Technologies). The inhibition profile of 55, evaluated at 1 μM, is depicted on a dendrogram on Figure 3 where kinases inhibited by a minimum of 80% are shown. A full list of the kinases tested is shown on Table S1 in supplementary information.

ACVR2B = ACVR2B (Homo sapiens, UniProt Q13705)
Description: as §1

ADCK3 = ADCK3 (Homo sapiens, UniProt Q8NI60)
Description: as §1

ALK L1196M = biological target: T2, ALK L1196M (Homo sapiens, UniProt Q9UM73, L1196M)
T2 construct: purchased Life Technologies (SelectScreen Whole Panel service)
Description: as §1

ALK T1151_L1152insT = biological target: T3, ALK T1151_L1152insT (Homo sapiens, UniProt Q9UM73, INS1151T)
T3 construct: purchased Life Technologies
Description: as §1

AXL R499C = biological target: T4, AXL R499C (Homo sapiens, UniProt P30530, R499C)
T4 construct: purchased Life Technologies
Description: as §1

BMPR1A (ALK3) = BMPR1A (ALK3) (Homo sapiens, UniProt P36894)
Description: as §1

CAMK2G (CaMKII gamma) = biological target: T5, CAMK2G (CaMKII gamma) (Homo sapiens, UniProt Q13555)
T5 construct: purchased Life Technologies
Description: as §1

CDK2/cyclin E1 = CDK2/cyclin E1 (Homo sapiens, UniProt P24941)
Description: as §1

CDK3/cyclin E1 = biological target: T6, CDK3/cyclin E1 (Homo sapiens, UniProt Q00526)
T6 construct: purchased Life Technologies (SelectScreen Whole Panel)
Description: as §1

DDR1 = biological target: T7, DDR1 (Homo sapiens, UniProt Q08345)
T7 construct: purchased Life Technologies
Description: as §1

DDR2 = biological target: T8, DDR2 (Homo sapiens, UniProt Q16832)
T8 construct: purchased Life Technologies
T8 sequence (Q16832 22-855): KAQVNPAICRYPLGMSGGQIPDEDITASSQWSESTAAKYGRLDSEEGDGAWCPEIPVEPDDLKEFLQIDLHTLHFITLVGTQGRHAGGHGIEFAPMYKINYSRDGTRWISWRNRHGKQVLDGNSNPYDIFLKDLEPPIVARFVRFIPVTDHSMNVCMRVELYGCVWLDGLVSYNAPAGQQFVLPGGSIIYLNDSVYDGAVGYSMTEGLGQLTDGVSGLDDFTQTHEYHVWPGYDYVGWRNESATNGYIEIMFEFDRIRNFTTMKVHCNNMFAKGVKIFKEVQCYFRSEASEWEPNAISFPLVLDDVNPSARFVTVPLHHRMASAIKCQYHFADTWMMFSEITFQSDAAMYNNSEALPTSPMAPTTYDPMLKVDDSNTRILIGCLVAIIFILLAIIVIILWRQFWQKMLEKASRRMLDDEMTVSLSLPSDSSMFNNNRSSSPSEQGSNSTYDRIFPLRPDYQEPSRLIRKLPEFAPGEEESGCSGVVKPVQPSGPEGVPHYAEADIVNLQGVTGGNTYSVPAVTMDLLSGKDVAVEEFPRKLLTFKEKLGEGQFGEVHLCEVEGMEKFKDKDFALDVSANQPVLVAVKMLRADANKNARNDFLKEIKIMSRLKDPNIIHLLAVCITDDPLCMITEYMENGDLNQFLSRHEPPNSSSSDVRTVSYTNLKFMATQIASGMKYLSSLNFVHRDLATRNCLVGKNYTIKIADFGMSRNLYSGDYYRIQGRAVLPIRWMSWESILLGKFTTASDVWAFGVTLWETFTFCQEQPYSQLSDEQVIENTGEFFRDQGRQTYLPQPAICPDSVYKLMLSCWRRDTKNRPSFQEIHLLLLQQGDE
Description: as §1

DYRK2 = biological target: T9, DYRK2 (Homo sapiens, UniProt Q92630)
T9 construct: purchased Life Technologies
Description: as §1

EIF2AK2 (PKR) = biological target: T10, EIF2AK2 (PKR) (Homo sapiens, UniProt P19525)
T10 construct: purchased Life Technologies (SelectScreen service)
Description: as §1

FGFR3 G697C = biological target: T11, FGFR3 G697C (Homo sapiens, UniProt P22607, G697C)
T11 construct: purchased Life Technologies
Description: as §1

HUNK = HUNK (Homo sapiens, UniProt P57058)
Description: as §1

ICK = ICK (Homo sapiens, UniProt Q9UPZ9)
ICK, sequence (Q9UPZ9 whole entry): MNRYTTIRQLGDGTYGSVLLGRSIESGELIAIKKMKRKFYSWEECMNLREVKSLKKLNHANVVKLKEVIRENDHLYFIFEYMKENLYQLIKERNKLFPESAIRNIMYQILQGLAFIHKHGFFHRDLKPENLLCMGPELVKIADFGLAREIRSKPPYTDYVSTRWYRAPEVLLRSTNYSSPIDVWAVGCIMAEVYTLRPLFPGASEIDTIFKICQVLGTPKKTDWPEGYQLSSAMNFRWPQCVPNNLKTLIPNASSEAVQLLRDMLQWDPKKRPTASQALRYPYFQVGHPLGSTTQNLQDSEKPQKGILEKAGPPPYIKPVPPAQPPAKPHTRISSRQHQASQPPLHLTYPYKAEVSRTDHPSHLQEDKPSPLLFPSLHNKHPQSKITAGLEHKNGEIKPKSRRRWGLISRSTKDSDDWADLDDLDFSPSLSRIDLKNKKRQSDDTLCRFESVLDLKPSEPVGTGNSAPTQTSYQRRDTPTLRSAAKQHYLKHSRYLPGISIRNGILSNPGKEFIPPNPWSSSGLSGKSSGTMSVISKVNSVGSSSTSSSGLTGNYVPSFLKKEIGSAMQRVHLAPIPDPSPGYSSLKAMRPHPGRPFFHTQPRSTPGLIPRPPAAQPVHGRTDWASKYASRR
Description: as §1

KIT D816V = biological target: T12, KIT D816V (Homo sapiens, UniProt P10721, D816V)
T12 construct: purchased Life Technologies (SelectScreen service)
Description: as §1

KIT D820E = biological target: T13, KIT D820E (Homo sapiens, UniProt P10721, D820E)
T13 construct: purchased Life Technologies (SelectScreen service)
Description: as §1

LATS2 = biological target: T14, LATS2 (Homo sapiens, UniProt Q9NRM7)
T14 construct: purchased Life Technologies (SelectScreen service)
T14 sequence (Q9NRM7 whole entry): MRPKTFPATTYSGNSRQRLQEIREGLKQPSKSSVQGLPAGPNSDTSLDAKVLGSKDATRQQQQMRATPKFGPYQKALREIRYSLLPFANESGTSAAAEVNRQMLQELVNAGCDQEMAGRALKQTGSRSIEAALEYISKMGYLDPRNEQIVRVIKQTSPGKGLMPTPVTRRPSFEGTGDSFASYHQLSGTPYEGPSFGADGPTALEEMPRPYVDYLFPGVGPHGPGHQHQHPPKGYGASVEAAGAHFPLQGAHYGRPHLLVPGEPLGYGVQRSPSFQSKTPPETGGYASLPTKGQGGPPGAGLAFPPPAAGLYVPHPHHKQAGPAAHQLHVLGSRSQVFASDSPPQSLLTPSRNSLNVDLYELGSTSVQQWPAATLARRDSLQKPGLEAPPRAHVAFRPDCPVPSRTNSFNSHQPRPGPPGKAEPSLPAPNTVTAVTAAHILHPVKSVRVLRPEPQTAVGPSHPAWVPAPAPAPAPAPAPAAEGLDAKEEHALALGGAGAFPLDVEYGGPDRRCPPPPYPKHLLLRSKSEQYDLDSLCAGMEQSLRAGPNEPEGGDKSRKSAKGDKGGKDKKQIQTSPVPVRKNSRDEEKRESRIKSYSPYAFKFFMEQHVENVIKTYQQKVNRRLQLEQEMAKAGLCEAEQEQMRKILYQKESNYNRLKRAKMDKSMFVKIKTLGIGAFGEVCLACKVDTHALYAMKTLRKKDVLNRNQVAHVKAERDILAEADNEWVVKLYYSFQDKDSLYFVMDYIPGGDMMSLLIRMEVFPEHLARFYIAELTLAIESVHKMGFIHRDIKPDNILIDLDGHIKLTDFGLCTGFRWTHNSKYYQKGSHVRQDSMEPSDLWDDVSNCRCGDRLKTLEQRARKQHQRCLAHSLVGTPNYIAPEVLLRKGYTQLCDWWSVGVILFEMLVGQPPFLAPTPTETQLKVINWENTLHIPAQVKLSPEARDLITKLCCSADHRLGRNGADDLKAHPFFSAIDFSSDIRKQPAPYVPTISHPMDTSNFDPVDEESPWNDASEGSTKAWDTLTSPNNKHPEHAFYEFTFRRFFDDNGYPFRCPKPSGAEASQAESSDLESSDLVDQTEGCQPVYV
Description: as §1

MAP2K4 (MEK4) = biological target: T15, MAP2K4 (MEK4) (Homo sapiens, UniProt P45985)
T15 construct: purchased Life Technologies (SelectScreen service)
Description: as §1

MAP3K10 (MLK2) = MAP3K10 (MLK2) (Homo sapiens, UniProt Q02779)
MAP3K10 (MLK2), sequence (Q02779 whole entry): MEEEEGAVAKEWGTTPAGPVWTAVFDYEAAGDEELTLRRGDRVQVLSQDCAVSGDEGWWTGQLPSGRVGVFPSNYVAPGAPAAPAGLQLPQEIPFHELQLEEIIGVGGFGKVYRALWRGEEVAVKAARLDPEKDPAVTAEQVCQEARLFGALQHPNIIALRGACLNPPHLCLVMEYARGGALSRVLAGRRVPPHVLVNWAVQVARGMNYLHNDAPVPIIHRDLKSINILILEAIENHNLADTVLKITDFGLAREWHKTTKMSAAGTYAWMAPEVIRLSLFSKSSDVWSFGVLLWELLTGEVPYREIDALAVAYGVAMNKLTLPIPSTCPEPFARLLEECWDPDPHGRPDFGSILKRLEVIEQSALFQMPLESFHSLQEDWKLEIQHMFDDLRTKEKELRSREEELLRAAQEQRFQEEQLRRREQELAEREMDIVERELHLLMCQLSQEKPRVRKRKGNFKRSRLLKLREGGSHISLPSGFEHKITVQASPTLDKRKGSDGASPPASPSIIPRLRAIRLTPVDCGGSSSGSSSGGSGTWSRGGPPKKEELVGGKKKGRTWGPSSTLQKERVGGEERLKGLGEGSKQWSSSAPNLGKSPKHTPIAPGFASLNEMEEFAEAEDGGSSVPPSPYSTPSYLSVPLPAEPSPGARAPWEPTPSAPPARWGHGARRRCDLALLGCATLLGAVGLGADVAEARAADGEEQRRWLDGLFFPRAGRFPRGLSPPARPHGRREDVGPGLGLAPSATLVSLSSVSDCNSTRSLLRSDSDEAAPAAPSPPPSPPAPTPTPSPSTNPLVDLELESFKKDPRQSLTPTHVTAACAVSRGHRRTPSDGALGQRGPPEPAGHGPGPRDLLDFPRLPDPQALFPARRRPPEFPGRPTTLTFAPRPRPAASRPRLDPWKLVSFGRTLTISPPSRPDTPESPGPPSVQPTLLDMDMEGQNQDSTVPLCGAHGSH
Description: as §1

MAP3K11 (MLK3) = biological target: T16, MAP3K11 (MLK3) (Homo sapiens, UniProt Q16584)
T16 construct: purchased Life Technologies
Description: as §1

MAP3K14 (NIK) = biological target: T17, MAP3K14 (NIK) (Homo sapiens, UniProt Q99558)
T17 construct: purchased Life Technologies (SelectScreen service)
T17 sequence (Q99558 whole entry): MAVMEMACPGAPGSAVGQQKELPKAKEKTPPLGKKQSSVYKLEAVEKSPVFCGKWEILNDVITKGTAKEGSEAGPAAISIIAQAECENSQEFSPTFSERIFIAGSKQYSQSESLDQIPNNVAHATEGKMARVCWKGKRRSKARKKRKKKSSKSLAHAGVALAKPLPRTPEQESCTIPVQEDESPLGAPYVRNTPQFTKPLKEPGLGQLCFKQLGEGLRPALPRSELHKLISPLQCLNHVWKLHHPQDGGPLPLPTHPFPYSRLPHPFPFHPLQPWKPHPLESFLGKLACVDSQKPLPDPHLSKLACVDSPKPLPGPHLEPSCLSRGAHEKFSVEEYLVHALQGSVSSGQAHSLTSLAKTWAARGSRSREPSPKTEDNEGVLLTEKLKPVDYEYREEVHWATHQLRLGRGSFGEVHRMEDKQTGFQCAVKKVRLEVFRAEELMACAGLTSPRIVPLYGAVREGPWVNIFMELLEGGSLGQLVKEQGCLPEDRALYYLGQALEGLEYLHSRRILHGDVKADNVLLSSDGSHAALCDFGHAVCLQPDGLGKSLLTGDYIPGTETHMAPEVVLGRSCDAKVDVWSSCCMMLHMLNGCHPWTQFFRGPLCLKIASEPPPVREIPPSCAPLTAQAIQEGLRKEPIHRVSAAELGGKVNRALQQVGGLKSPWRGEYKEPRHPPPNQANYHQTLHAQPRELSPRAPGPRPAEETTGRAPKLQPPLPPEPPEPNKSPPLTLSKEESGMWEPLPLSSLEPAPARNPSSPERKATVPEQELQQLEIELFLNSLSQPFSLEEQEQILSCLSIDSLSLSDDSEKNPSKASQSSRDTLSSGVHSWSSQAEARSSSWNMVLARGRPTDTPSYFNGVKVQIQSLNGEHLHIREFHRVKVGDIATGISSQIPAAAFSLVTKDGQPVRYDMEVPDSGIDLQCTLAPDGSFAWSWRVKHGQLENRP
Description: as §1

MAP3K3 (MEKK3) = biological target: T18, MAP3K3 (MEKK3) (Homo sapiens, UniProt Q99759)
T18 construct: purchased Life Technologies (SelectScreen service)
Description: as §1

MYO3A (MYO3 alpha) = biological target: T19, MYO3A (MYO3 alpha) (Homo sapiens, UniProt Q8NEV4)
T19 construct: purchased Life Technologies
Description: as §1

NUAK2 = biological target: T20, NUAK2 (Homo sapiens, UniProt Q9H093)
T20 construct: purchased Life Technologies (SelectScreen Whole Panel)
Description: as §1

PKN2 (PRK2) = biological target: T21, PKN2 (PRK2) (Homo sapiens, UniProt Q16513)
T21 construct: purchased Life Technologies
Description: as §1

RAF1 (cRAF) Y340D Y341D = biological target: T22, RAF1 (cRAF) Y340D Y341D (Homo sapiens, UniProt P04049, Y340D/Y341D)
T22 construct: purchased Life Technologies
Description: as §1

RIPK3 = biological target: T23, RIPK3 (Homo sapiens, UniProt Q9Y572)
T23 construct: purchased Life Technologies (SelectScreen Whole Panel)
Description: as §1

STK17A (DRAK1) = biological target: T24, STK17A (DRAK1) (Homo sapiens, UniProt Q9UEE5)
T24 construct: purchased Life Technologies
T24 sequence (Q9UEE5 whole entry): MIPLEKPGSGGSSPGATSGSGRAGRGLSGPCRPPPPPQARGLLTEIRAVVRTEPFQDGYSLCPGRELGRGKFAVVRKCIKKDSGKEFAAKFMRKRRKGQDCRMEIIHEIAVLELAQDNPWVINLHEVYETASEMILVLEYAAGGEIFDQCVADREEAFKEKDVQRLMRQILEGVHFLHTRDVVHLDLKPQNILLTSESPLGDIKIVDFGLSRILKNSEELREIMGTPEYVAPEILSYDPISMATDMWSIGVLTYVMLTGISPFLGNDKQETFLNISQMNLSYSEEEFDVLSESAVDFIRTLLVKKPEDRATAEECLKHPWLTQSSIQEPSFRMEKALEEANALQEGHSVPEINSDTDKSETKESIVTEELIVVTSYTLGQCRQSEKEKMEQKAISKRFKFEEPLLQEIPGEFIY
Description: as §1

STK32B (YANK2) = STK32B (YANK2) (Homo sapiens, UniProt Q9NY57)
Description: as §1

STK38 (NDR) = biological target: T25, STK38 (NDR) (Homo sapiens, UniProt Q15208)
T25 construct: purchased Life Technologies (SelectScreen Whole Panel service)
Description: as §1

TESK2 = biological target: T26, TESK2 (Homo sapiens, UniProt Q96S53)
T26 construct: purchased Life Technologies
Description: as §1

TGFBR1 (ALK5) = biological target: T27, TGFBR1 (ALK5) (Homo sapiens, UniProt P36897)
T27 construct: purchased Life Technologies (SelectScreen Whole Panel service)
Description: as §1

TLK2 = biological target: T28, TLK2 (Homo sapiens, UniProt Q86UE8)
T28 construct: purchased Life Technologies (SelectScreen service)
Description: as §1

TNIK = TNIK (Homo sapiens, UniProt Q9UKE5)
Description: as §1

TNK2 (ACK) = TNK2 (ACK) (Homo sapiens, UniProt Q07912)
Description: as §1

ULK1 = biological target: T29, ULK1 (Homo sapiens, UniProt O75385)
T29 construct: purchased Life Technologies
Description: as §1

ZAK = biological target: T30, ZAK (Homo sapiens, UniProt Q9NYL2)
T30 construct: purchased Life Technologies
Description: as §1

In the case of `COc1ccc2[nH]c3c(=O)[nH]c4ccc(O)cc4c3c2c1` [Compound 55, 2-Hydroxy-10-methoxy-5,7-dihydro-6H-indolo[2,3-c]quinolin-6-one], the inhibition at 1 µM (AAK1) is reported as 97%, the inhibition at 1 µM (ACVR2B) is reported as 21% and the inhibition at 1 µM (ADCK3) is reported as 60%. The inhibition at 1 µM (ALK L1196M) was 15%, the inhibition at 1 µM (ALK T1151_L1152insT) was 32% and the inhibition at 1 µM (AXL R499C) was 35%. The inhibition at 1 µM (BMPR1A (ALK3)) was 6%, the inhibition at 1 µM (CAMK2G (CaMKII gamma)) was 30% and the inhibition at 1 µM (CDK2/cyclin E1) was 64%. It also gave an inhibition at 1 µM (CDK3/cyclin E1) of 50%, an inhibition at 1 µM (DDR1) of 5% and an inhibition at 1 µM (DDR2) of 3%. It also gave an inhibition at 1 µM (DYRK2) of 97%, an inhibition at 1 µM (EIF2AK2 (PKR)) of 74% and an inhibition at 1 µM (FGFR3 G697C) of 35%. It also gave an inhibition at 1 µM (HUNK) of 20%, an inhibition at 1 µM (ICK) of 57% and an inhibition at 1 µM (KIT D816V) of 77%. It also gave an inhibition at 1 µM (KIT D820E) of 24%, an inhibition at 1 µM (LATS2) of 82% and an inhibition at 1 µM (MAP2K4 (MEK4)) of 26%. The inhibition at 1 µM (MAP3K10 (MLK2)) was 20%, the inhibition at 1 µM (MAP3K11 (MLK3)) was 36% and the inhibition at 1 µM (MAP3K14 (NIK)) was 79%. The inhibition at 1 µM (MAP3K3 (MEKK3)) was 71%, the inhibition at 1 µM (MYO3A (MYO3 alpha)) was 33% and the inhibition at 1 µM (NUAK2) was 53%. For the same compound, the inhibition at 1 µM (PKN2 (PRK2)) was 32%, the inhibition at 1 µM (RAF1 (cRAF) Y340D Y341D) was 4% and the inhibition at 1 µM (RIPK3) was -6%. For the same compound, the inhibition at 1 µM (STK17A (DRAK1)) was 95%, the inhibition at 1 µM (STK32B (YANK2)) was 7% and the inhibition at 1 µM (STK38 (NDR)) was 12%. It also gave an inhibition at 1 µM (TESK2) of 3%, an inhibition at 1 µM (TGFBR1 (ALK5)) of 10% and an inhibition at 1 µM (TLK2) of 88%. The inhibition at 1 µM (TNIK) was 61%, the inhibition at 1 µM (TNK2 (ACK)) was 15% and the inhibition at 1 µM (ULK1) was 31%. It also gave an inhibition at 1 µM (ZAK) of 4%.
